Assay results: BigSolDB 2.1

CN1C(C(=O)Nc2ccccn2)=C(O)c2sccc2S1(=O)=O
Conditions	solubility (mole fraction)
in PEG-400, 298.15 K	0.00976
in PEG-400, 303.15 K	0.0131
in PEG-400, 308.15 K	0.0175
in PEG-400, 313.15 K	0.0227
in PEG-400, 323.15 K	0.0345

solubility (mole fraction)
Conditions	in ethanol	in ethyl acetate	in ethylene glycol	in isopropanol	in n-butanol	in propylene glycol	in sec-butanol	in transcutol	in water
298.15 K	3.71e-05	0.000679	0.000213	6.27e-05	8.13e-05	0.000194	6.15e-05	0.00183	4.11e-06
303.15 K	4.11e-05	0.000746	0.000246	8.91e-05	0.000105	0.000235	8.79e-05	0.00202	5.07e-06
308.15 K	4.56e-05	0.000825	0.000283	0.000125	0.000134	0.000275	0.000123	0.00222	6.46e-06
313.15 K	4.98e-05	0.000908	0.000324	0.000164	0.000163	0.000327	0.000163	0.00241	8.33e-06
323.15 K	5.84e-05	0.00106	0.000441	0.000267	0.000239	0.000437	0.000272	0.00286	1.38e-05
